Measurements: patent US10501805B2, “Methods for determining responsiveness to MEK/ERK inhibitors” (CROWN BIOSCIENCE, INC. (TAICANG), priority 2014, dated 2019)

Columns and labels:
Test in all cases: CellTiter-Glo cell viability, IC50 determination
Assay type in all cases: cell-based
PL45 = settings: 72 h; PL45 cell line; 3-day CTG assay; read-out: Absolute IC50
Description: (§1) All the cells will be cultured in the media supplemented with 10% FBS except for which are marked specially, in the temperature of 37° C., 5% CO2 and 95% humidity.
(§2) Cell viability is assayed by using CellTiter-Glo® Luminescent Cell Viability Assay Kit (Cat. No.: G7572, Promega. Store at −20° C.). To prepare the CellTiter_Glo Reagent, the CellTiter-Glo Buffer was thawed and equilibrated to room temperature prior to use. For convenience the CellTiter-Glo Buffer may be thawed and stored at room temperature for up to 48 hours prior to use. The lyophilized CellTiter-Glo Substrate is equilibrated to room temperature prior to use. The appropriate volume (100 ml) of CellTiter-Glo Buffer is transferred into the amber bottle containing CellTiter-Glo Substrate to reconstitute the lyophilized enzyme/substrate mixture, which forms the CellTiter-Glo Reagent. In certain cases, the entire liquid volume of the CellTiter-Glo Buffer bottle may be added to the CellTiter-Glo Substrate vial. Mix by gently vortexing, swirling or by inverting the contents to obtain a homogeneous solution. The CellTiter-Glo Substrate should go into solution easily in less than one minute.
(§3) The day before the experiment (Day −1), cells were dissociated during the logarithmic growth period with Cell Disassociation Buffer (Gibco 13151-014) and mixed with appropriate cell media and centrifuge at 1000 rpm for 3 minutes. The cells were re-suspended and counted using Countstar before adjusting cell concentrations to optimized density (i.e. 4.44×10^4 cells/ml) with respective culture medium listed in Table 1 for 3-day CTG assay (The cell density was optimized before actual study; cell density used in the test may vary for different cell lines). 90 μl cell suspensions were added to two 96-well plates (plates A and B) with the final cell density of 4×10^3 cells/well for 3-day CTG assay (the cell density was optimized before actual study; cell density used in the test may vary for different cell lines). The plate A and B group were incubated for overnight in humidified incubator at 37° C. with 5% CO2.
(§4) On Day 0, for plate A group, 10 μl culture medium was added to each well for T0 reading. CellTiter-Glo® Reagent was added at equal volume of cell culture medium present in each well (e.g., add 100 μl of reagent to 100 μl of medium containing cells for a 96-well plate). Contents were mixed for 2 minutes on an orbital shaker to facilitate cell lysis. The plate was allowed to incubate at room temperature for 10 minutes to stabilize luminescent signal. Backseal black sticker was added to the bottom of each plate. Luminescence was recorded using EnVision Multi Label Reader. This formed the basis for T0 value.
(§5) On Day 0, the test articles and positive controls were dissolved at the concentration indicated at Test Article Dilution map. 100× solution in PBS was prepared and then diluted with appropriate culture media (1:10) into 10×working solutions. 10 μl (10×) drug solutions were dispensed in each well (triplicate for each drug concentration) of the plate B group according to plate inoculation map. The test plates were incubated for […] in the humidified incubator at 37° with 5% CO2.
(§6) On Day 3, CellTiter-Glo® Reagent was added at equal volume of cell culture medium present in each well (e.g., add 100 μl of reagent to 100 μl of medium containing cells for a 96-well plate). Contents were mixed for 2 minutes on an orbital shaker to induce cell lysis. The plate was allowed to incubate at room temperature for 10 minutes to stabilize luminescent signal. Backseal black sticker was placed to the bottom of each plate. Luminescence was recorded using EnVision Multi Label Reader.
(§7) In order to calculate IC50s, a dose-response curve was fitted using a nonlinear regression model with a sigmoidal dose response. The formula for calculating surviving rate was shown below; Absolute IC50 is calculated where Y axis set at 50% using GraphPad Prism 5.0. Software. […]

HCT116 = settings: Homo sapiens, HCT-116, 72 h; HCT116 cell line; 3-day CTG assay; read-out: Absolute IC50
Description: as §1, §2, §3, §4, §5, §6, §7

HT29 = settings: Homo sapiens, HT-29, 72 h; HT29 cell line; 3-day CTG assay; read-out: Absolute IC50
Description: as §1, §2, §3, §4, §5, §6, §7

NCI-H1666 = settings: Homo sapiens, 72 h; NCI-H1666 cell line; 3-day CTG assay; read-out: Absolute IC50
Description: as §1, §2, §3, §4, §5, §6, §7

NCI-H460 = settings: Homo sapiens, 72 h; NCI-H460 cell line; 3-day CTG assay; read-out: Absolute IC50
Description: as §1, §2, §3, §4, §5, §6, §7

PC-3 = settings: Homo sapiens, 72 h; PC-3 cell line; 3-day CTG assay; read-out: Absolute IC50
Description: as §1, §2, §3, §4, §5, §6, §7

NCI-H2227 = settings: 72 h; NCI-H2227 cell line; 3-day CTG assay; read-out: Absolute IC50
Description: as §1, §2, §3, §4, §5, §6, §7

Hela = settings: Homo sapiens, 72 h; Hela cell line; 3-day CTG assay; read-out: Absolute IC50
Description: as §1, §2, §3, §4, §5, §6, §7

SK-LU-1 = settings: Homo sapiens, 72 h; SK-LU-1 cell line; 3-day CTG assay; read-out: Absolute IC50
Description: as §1, §2, §3, §4, §5, §6, §7

HT1376 = settings: Homo sapiens, HT-1376, 72 h; HT1376 cell line; 3-day CTG assay; read-out: Absolute IC50
Description: as §1, §2, §3, §4, §5, §6, §7

MDA-MB-231 = settings: Homo sapiens, 72 h; MDA-MB-231 cell line; 3-day CTG assay; read-out: Absolute IC50
Description: as §1, §2, §3, §4, §5, §6, §7

NCI-H1651 = settings: Homo sapiens, 72 h; NCI-H1651 cell line; 3-day CTG assay; read-out: Absolute IC50
Description: as §1, §2, §3, §4, §5, §6, §7

NCI-H1299 = settings: Homo sapiens, 72 h; NCI-H1299 cell line; 3-day CTG assay; read-out: Absolute IC50
Description: as §1, §2, §3, §4, §5, §6, §7

SW480 = settings: Homo sapiens, 72 h; SW480 cell line; 3-day CTG assay; read-out: Absolute IC50
Description: as §1, §2, §3, §4, §5, §6, §7

BT474 = settings: Homo sapiens, BT-474, 72 h; BT474 cell line; 3-day CTG assay; read-out: Absolute IC50
Description: as §1, §2, §3, §4, §5, §6, §7

NCI-H1155 = settings: Homo sapiens, 72 h; NCI-H1155 cell line; 3-day CTG assay; read-out: Absolute IC50
Description: as §1, §2, §3, §4, §5, §6, §7

Row | IC50 (HCT116) [µM] | IC50 (HT29) [µM] | IC50 (NCI-H1666) [µM] | IC50 (NCI-H460) [µM] | IC50 (PC-3) [µM] | IC50 (NCI-H2227) [µM] | IC50 (Hela) [µM] | IC50 (SK-LU-1) [µM] | IC50 (HT1376) [µM] | IC50 (MDA-MB-231) [µM] | IC50 (NCI-H1651) [µM] | IC50 (NCI-H1299) [µM] | IC50 (SW480) [µM] | IC50 (BT474) [µM] | IC50 (NCI-H1155) [µM] | SMILES | IC50 (PL45) [µM]
1 | 0.45 | 0.23 | 0.92 | 5.53 | 14.3 | 28.7 | 5.38 | 4.69 | 4.27 | 32.3 | 48.8 | – | – | – | – | O=C(Nc1ccc2[nH]nc(-c3ccncc3)c2c1)[C@@H]1CCN(CC(=O)N2CCN(c3ccc(-c4ncccn4)cc3)CC2)C1 [SCH772984, (R)-1-(2-oxo-2-(4-(4-(pyrimidin-2-yl)phenyl)piperazin-1-yl)ethyl)-N-(3-(pyridin-4-yl)-1H-indazol-5-yl)pyrrolidine-3-carboxamide] | 0.66
2 | 0.04 | 0.01 | 0.13 | – | – | – | – | – | – | 24 | – | 0.91 | 6.65 | 39 | 636 | CC(=O)Nc1cccc(-n2c(=O)n(C3CC3)c(=O)c3c(Nc4ccc(I)cc4F)n(C)c(=O)c(C)c32)c1 [Trametinib, N-(3-{3-Cyclopropyl-5-[(2-fluoro-4-iodophenyl)amino]-6,8-dimethyl-2,4,7-trioxo-3,4,6,7-tetrahydropyrido[4,3-d]pyrimidin-1(2H)-yl}phenyl)acetamide] | 0.12
